According to ChEMBL document CHEMBL4507295 (2021):

Tests used:
Conditions in all cases: Compound concentration 1000.0 nM
[1] = target: Serine/threonine-protein kinase D3 (Homo sapiens) (UniProt O94806)
[2] = test system: Receptor-type tyrosine-protein kinase FLT3 (Homo sapiens), P36888 [D835V]
[3] = target: Interleukin-1 receptor-associated kinase 3 (Homo sapiens) (UniProt Q9Y616)
[4] = target: Ribosomal protein S6 kinase alpha-5 (Homo sapiens) (UniProt O75582)
[5] = target: NUAK family SNF1-like kinase 1 (Homo sapiens) (UniProt O60285)
[6] = target: Serine/threonine-protein kinase Nek6 (Homo sapiens) (UniProt Q9HC98)
[7] = target: Calcium/calmodulin-dependent protein kinase type II subunit delta (Homo sapiens) (UniProt Q13557)
[8] = target: Serine/threonine-protein kinase MRCK beta (Homo sapiens) (UniProt Q9Y5S2)
[9] = target: Uncharacterized serine/threonine-protein kinase SBK3 (Homo sapiens) (UniProt P0C264)
Uncharacterized serine/threonine-protein kinase SBK3 (Homo sapiens), sequence (P0C264 whole entry): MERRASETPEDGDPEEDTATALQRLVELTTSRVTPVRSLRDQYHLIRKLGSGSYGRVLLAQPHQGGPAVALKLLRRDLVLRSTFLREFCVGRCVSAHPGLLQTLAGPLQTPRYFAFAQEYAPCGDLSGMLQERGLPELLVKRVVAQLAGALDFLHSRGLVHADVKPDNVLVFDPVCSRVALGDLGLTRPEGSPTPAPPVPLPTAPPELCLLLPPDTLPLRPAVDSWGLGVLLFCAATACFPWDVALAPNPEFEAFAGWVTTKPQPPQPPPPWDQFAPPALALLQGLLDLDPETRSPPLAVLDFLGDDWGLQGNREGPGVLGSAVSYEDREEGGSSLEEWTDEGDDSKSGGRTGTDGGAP

[10] = target: Tyrosine-protein kinase JAK1 (Homo sapiens) (UniProt P23458)
[11] = target: Inhibitor of nuclear factor kappa-B kinase subunit alpha (Homo sapiens) (UniProt O15111)
[12] = test system: Receptor-type tyrosine-protein kinase FLT3 (Homo sapiens), P36888 [R834Q]
[13] = target: Serine/threonine-protein kinase 17A (Homo sapiens) (UniProt Q9UEE5)
[14] = target: Aurora kinase A (Homo sapiens) (UniProt O14965)
[15] = target: Ephrin type-A receptor 5 (Homo sapiens) (UniProt P54756)
[16] = test system: Phosphatidylinositol 4,5-bisphosphate 3-kinase catalytic subunit alpha isoform (Homo sapiens), P42336 [Q546K]
Phosphatidylinositol 4,5-bisphosphate 3-kinase catalytic subunit alpha isoform (Homo sapiens), P42336 [Q546K], sequence (P42336 whole entry Q546K, canonical isoform): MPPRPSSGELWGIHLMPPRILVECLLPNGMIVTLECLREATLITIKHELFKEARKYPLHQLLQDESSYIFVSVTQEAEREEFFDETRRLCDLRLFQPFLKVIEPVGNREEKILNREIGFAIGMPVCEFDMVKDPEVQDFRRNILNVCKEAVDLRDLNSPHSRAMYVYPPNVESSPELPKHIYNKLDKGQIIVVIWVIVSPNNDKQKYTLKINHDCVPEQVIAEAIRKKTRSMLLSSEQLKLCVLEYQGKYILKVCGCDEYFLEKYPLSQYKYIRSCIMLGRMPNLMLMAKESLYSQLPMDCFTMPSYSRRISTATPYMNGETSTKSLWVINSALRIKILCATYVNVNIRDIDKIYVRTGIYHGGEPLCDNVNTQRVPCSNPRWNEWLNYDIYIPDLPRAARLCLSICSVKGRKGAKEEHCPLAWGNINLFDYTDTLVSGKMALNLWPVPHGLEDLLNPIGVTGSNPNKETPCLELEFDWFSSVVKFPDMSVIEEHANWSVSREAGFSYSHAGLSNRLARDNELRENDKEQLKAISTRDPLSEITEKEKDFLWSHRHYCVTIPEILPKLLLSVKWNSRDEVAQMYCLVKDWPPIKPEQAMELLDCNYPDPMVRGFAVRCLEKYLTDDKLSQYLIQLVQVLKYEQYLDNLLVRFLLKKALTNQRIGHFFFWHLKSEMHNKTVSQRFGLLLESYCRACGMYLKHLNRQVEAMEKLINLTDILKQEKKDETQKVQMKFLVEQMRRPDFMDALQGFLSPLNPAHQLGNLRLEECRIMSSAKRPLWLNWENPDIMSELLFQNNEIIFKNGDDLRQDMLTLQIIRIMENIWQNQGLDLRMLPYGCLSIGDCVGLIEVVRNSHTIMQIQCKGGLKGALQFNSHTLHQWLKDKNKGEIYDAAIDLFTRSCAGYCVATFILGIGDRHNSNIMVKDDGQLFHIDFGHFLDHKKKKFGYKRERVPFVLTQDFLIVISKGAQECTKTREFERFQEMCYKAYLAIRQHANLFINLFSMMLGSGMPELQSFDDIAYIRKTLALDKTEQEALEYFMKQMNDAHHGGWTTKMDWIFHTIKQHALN

[17] = target: Phosphatidylinositol 5-phosphate 4-kinase type-2 gamma (Homo sapiens) (UniProt Q8TBX8)
[18] = target: MAP kinase-interacting serine/threonine-protein kinase 2 (Homo sapiens) (UniProt Q9HBH9)
MAP kinase-interacting serine/threonine-protein kinase 2 (Homo sapiens), sequence (Q9HBH9 whole entry, looked up): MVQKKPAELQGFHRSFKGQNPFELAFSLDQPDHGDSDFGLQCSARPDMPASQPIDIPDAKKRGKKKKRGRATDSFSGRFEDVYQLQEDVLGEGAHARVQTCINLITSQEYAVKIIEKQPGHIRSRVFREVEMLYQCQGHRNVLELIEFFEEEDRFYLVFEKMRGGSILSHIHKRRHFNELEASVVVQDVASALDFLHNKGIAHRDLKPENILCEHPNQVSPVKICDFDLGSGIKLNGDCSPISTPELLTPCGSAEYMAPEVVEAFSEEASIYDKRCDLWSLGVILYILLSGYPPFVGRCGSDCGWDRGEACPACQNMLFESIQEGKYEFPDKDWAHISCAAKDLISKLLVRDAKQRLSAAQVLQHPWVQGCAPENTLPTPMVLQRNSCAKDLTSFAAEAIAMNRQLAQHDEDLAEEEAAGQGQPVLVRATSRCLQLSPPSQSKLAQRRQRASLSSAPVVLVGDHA

[19] = target: Myosin light chain kinase 2, skeletal/cardiac muscle (Homo sapiens) (UniProt Q9H1R3)
[20] = target: Mitogen-activated protein kinase 1 (Homo sapiens) (UniProt P28482)
Mitogen-activated protein kinase 1 (Homo sapiens), sequence (P28482 whole entry): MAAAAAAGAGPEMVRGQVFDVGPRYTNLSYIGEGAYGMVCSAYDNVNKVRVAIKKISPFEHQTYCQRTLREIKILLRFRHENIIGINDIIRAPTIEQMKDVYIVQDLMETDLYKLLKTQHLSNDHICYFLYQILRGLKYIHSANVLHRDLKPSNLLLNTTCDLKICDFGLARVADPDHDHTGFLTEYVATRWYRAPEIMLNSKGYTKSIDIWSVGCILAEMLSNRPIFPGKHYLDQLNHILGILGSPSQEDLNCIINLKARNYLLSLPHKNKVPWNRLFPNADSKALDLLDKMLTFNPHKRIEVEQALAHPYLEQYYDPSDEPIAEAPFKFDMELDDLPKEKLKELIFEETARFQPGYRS

[21] = target: Tyrosine-protein kinase ABL1 (Homo sapiens) (UniProt P00519)
[22] = target: BMP-2-inducible protein kinase (Homo sapiens) (UniProt Q9NSY1)
[23] = target: Cyclin-dependent kinase 11B (Homo sapiens) (UniProt P21127)
[24] = target: Fibroblast growth factor receptor 3 (Homo sapiens) (UniProt P22607)
Fibroblast growth factor receptor 3 (Homo sapiens), sequence (P22607 23-806 limits assumed): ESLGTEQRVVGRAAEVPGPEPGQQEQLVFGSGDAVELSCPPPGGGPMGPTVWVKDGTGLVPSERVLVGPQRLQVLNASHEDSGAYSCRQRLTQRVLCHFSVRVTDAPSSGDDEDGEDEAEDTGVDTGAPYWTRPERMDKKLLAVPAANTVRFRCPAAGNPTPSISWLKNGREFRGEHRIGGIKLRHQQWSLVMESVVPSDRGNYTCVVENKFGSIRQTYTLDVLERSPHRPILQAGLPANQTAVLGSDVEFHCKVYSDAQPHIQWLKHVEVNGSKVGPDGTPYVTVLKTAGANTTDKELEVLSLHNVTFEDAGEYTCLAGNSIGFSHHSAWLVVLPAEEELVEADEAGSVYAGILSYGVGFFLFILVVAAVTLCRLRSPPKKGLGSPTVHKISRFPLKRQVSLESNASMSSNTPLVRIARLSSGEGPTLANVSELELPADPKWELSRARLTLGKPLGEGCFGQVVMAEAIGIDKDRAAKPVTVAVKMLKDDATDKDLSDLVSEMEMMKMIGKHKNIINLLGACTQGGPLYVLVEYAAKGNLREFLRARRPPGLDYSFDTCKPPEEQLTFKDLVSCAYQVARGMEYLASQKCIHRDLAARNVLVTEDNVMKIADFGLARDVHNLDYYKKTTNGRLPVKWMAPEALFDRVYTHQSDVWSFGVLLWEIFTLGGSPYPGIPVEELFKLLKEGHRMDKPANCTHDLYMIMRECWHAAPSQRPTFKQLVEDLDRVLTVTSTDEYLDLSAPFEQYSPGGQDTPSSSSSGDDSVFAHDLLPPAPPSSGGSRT

[25] = target: Cytoplasmic tyrosine-protein kinase BMX (Homo sapiens) (UniProt P51813)
Cytoplasmic tyrosine-protein kinase BMX (Homo sapiens), sequence (P51813 whole entry): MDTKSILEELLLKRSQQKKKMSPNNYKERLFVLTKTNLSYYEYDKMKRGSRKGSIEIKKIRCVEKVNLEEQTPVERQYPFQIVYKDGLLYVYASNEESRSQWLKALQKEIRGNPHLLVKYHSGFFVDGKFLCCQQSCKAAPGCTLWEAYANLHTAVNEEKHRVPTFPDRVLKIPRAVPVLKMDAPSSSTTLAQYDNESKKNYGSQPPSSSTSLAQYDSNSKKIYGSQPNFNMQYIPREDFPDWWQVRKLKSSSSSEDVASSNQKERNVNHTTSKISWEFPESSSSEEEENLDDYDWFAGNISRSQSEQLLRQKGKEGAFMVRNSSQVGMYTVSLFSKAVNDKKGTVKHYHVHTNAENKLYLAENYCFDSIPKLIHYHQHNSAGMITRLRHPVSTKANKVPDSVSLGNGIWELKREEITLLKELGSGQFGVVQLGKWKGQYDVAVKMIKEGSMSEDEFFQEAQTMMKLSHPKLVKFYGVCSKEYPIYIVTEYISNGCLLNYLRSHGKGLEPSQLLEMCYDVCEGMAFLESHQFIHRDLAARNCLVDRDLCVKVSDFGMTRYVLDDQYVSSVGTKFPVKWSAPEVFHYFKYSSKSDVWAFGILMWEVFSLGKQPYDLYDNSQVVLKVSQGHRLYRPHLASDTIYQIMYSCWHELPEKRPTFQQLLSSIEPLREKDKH

[26] = target: Ephrin type-A receptor 4 (Homo sapiens) (UniProt P54764)
[27] = target: Serine/threonine-protein kinase tousled-like 2 (Homo sapiens) (UniProt Q86UE8)
[28] = test system: Mast/stem cell growth factor receptor Kit (Homo sapiens), P10721 [V559D]
[29] = target: Dual specificity tyrosine-phosphorylation-regulated kinase 1A (Homo sapiens) (UniProt Q13627)
[30] = target: Myosin light chain kinase, smooth muscle (Homo sapiens) (UniProt Q15746)
[31] = target: Mitogen-activated protein kinase 13 (Homo sapiens) (UniProt O15264)
[32] = target: LIM domain kinase 2 (Homo sapiens) (UniProt P53671)
LIM domain kinase 2 (Homo sapiens), sequence (P53671 whole entry, looked up, the tested form may be a part): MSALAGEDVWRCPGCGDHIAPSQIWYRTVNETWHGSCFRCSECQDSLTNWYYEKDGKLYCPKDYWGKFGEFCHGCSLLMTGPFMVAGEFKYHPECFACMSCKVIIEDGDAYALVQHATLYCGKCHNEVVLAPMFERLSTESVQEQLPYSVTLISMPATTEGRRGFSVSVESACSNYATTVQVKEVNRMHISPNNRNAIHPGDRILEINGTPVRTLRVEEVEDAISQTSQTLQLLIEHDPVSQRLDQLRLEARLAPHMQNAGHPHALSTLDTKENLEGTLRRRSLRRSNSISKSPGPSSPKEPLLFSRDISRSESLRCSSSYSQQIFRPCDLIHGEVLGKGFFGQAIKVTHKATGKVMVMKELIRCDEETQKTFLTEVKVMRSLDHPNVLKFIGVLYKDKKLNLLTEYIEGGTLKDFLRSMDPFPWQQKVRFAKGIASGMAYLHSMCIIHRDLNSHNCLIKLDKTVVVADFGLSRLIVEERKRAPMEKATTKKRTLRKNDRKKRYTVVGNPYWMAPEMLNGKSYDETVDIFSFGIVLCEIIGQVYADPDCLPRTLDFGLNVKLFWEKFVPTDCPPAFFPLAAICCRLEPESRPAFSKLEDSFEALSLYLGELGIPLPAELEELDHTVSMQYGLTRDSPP

[33] = target: Tyrosine-protein kinase BTK (Homo sapiens) (UniProt Q06187)
[34] = target: Dual specificity testis-specific protein kinase 1 (Homo sapiens) (UniProt Q15569)
[35] = target: Ribosomal protein S6 kinase alpha-4 (Homo sapiens) (UniProt O75676)
[36] = target: Hepatocyte growth factor receptor (Homo sapiens) (UniProt P08581)
[37] = target: Mitogen-activated protein kinase kinase kinase 10 (Homo sapiens) (UniProt Q02779)
[38] = target: Tyrosine-protein kinase Fyn (Homo sapiens) (UniProt P06241)
[39] = target: Tyrosine-protein kinase Fer (Homo sapiens) (UniProt P16591)
[40] = target: Casein kinase II subunit alpha (Homo sapiens) (UniProt P68400)
[41] = target: Macrophage-stimulating protein receptor (Homo sapiens) (UniProt Q04912)
[42] = target: Serine/threonine-protein kinase PAK 2 (Homo sapiens) (UniProt Q13177)
Serine/threonine-protein kinase PAK 2 (Homo sapiens), sequence (Q13177 whole entry): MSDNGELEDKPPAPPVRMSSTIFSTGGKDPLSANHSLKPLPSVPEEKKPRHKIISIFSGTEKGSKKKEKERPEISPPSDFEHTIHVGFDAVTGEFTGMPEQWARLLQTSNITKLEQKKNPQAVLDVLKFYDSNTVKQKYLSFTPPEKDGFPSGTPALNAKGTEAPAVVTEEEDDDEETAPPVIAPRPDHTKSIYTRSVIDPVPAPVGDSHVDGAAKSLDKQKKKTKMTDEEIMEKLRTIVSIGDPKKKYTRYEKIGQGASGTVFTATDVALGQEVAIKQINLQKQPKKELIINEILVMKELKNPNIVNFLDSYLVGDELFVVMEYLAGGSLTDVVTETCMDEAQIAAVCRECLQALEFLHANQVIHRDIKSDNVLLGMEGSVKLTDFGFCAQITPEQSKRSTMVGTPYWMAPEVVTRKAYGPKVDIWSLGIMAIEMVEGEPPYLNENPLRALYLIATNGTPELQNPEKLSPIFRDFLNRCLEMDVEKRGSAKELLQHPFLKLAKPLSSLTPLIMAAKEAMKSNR

[43] = target: Serine/threonine-protein kinase D2 (Homo sapiens) (UniProt Q9BZL6)
[44] = target: Maternal embryonic leucine zipper kinase (Homo sapiens) (UniProt Q14680)
[45] = target: Casein kinase I isoform gamma-3 (Homo sapiens) (UniProt Q9Y6M4)

Measured: residual activity

N#CC1(c2ccccn2)CCN(Cc2cc(C(=O)N3CCCC3)c(=O)n3ccccc23)CC1
inactive: [1] 100% | [2] 98% | [3] 100% | [4] 88% | [5] 86% | [6] 100% | [7] 97% | [8] 63% | [9] 100% | [10] 100% | [11] 94% | [12] 100% | [13] 96% | [14] 90% | [15] 100% | [16] 94% | [17] 58% | [18] 96% | [19] 87% | [20] 98% | [21] 78% | [22] 92% | [23] 80% | [24] 88% | [25] 84% | [26] 89% | [27] 100% | [28] 100% | [29] 94% | [30] 100% | [31] 89% | [32] 82% | [33] 100% | [34] 90% | [35] 79% | [36] 95% | [37] 100% | [38] 83% | [39] 89% | [40] 100% | [41] 100% | [42] 100% | [43] 85% | [44] 78% | [45] 76%

N#CC1(c2ccccn2)CCN(Cc2cc(C(=O)O)c(=O)n3ccccc23)CC1 [MSD-M1PAM]
inactive: [1] 98% | [2] 100% | [3] 100% | [4] 100% | [5] 98% | [6] 100% | [7] 100% | [8] 96% | [9] 72% | [10] 84% | [11] 100% | [12] 100% | [13] 100% | [14] 100% | [15] 89% | [16] 58% | [17] 99% | [18] 85% | [19] 94% | [20] 100% | [21] 98% | [22] 95% | [23] 100% | [24] 100% | [25] 88% | [26] 79% | [27] 98% | [28] 100% | [29] 97% | [30] 87% | [31] 100% | [32] 100% | [33] 100% | [34] 100% | [35] 94% | [36] 84% | [37] 97% | [38] 99% | [39] 100% | [40] 86% | [41] 100% | [42] 77% | [43] 99% | [44] 55% | [45] 93%
